Publication PMC7901646, “Pyrrolo[2′,3′:3,4]cyclohepta[1,2-d][1,2]oxazoles, a New Class of Antimitotic Agents Active against Multiple Malignant Cell Types” (Journal of Medicinal Chemistry, 2020)
Read-outs that look alike come from different tables or passages of the source.

Assays:
[1] = test system: NCI-60 panel of human cancer cell lines; assay: NCI in vitro human tumor cell line screening, full panel; type: cell-based; conditions: for MG_MID (mean graph midpoint): arithmetic mean for all tested cancer cell lines
Source text: (§1) on the full NCI-60 panel comprising cancer cell lines derived from nine human cancer cell types (leukemia, non-small-cell lung, colon, central nervous system, melanoma, ovarian, renal, prostate, and breast).[50]

NCI-H322M = assay: NCI-60 screen; type: cell-based; conditions: Homo sapiens, Non-Small-Cell Lung Cancer
Procedure: as §1, with “All the synthesized compounds 51–76 were tested at a 10^–5 M concentration for their antitumor activity on the” for “on the”

MALME-3M = assay: NCI-60 screen; type: cell-based; conditions: Homo sapiens, Melanoma
Procedure: as §1, with “All the synthesized compounds 51–76 were tested at a 10^–5 M concentration for their antitumor activity on the” for “on the”

ACHN = assay: NCI-60 screen; type: cell-based; conditions: Homo sapiens, Renal Cancer
Procedure: as §1, with “All the synthesized compounds 51–76 were tested at a 10^–5 M concentration for their antitumor activity on the” for “on the”

OVCAR-5 = assay: NCI-60 screen; type: cell-based; conditions: Homo sapiens, Ovarian Cancer
Procedure: as §1, with “All the synthesized compounds 51–76 were tested at a 10^–5 M concentration for their antitumor activity on the” for “on the”

A498 = assay: NCI-60 screen; type: cell-based; conditions: Homo sapiens, Renal Cancer
Procedure: as §1, with “All the synthesized compounds 51–76 were tested at a 10^–5 M concentration for their antitumor activity on the” for “on the”

CCRF-CEM = assay: NCI-60 screen; type: cell-based; conditions: Homo sapiens, Leukemia
Procedure: as §1, with “All the synthesized compounds 51–76 were tested at a 10^–5 M concentration for their antitumor activity on the” for “on the”

T-47D = assay: NCI-60 screen; type: cell-based; conditions: Homo sapiens, T47D; Breast Cancer
Procedure: as §1, with “All the synthesized compounds 51–76 were tested at a 10^–5 M concentration for their antitumor activity on the” for “on the”

HOP-62 = assay: NCI-60 screen; type: cell-based; conditions: Homo sapiens, Non-Small-Cell Lung Cancer
Procedure: as §1, with “All the synthesized compounds 51–76 were tested at a 10^–5 M concentration for their antitumor activity on the” for “on the”

SK-MEL-5 = assay: NCI-60 screen; type: cell-based; conditions: Homo sapiens, Melanoma
Procedure: as §1, with “All the synthesized compounds 51–76 were tested at a 10^–5 M concentration for their antitumor activity on the” for “on the”

NCI-H226 = assay: NCI-60 screen; type: cell-based; conditions: Homo sapiens, Non-Small-Cell Lung Cancer
Procedure: as §1, with “All the synthesized compounds 51–76 were tested at a 10^–5 M concentration for their antitumor activity on the” for “on the”

DU-145 = assay: NCI-60 screen; type: cell-based; conditions: Homo sapiens, Prostate Cancer
Procedure: as §1, with “All the synthesized compounds 51–76 were tested at a 10^–5 M concentration for their antitumor activity on the” for “on the”

K-562 = assay: NCI-60 screen; type: cell-based; conditions: Homo sapiens, K562; Leukemia
Procedure: as §1, with “All the synthesized compounds 51–76 were tested at a 10^–5 M concentration for their antitumor activity on the” for “on the”

SNB-75 = assay: NCI-60 screen; type: cell-based; conditions: Homo sapiens, CNS Cancer
Procedure: as §1, with “All the synthesized compounds 51–76 were tested at a 10^–5 M concentration for their antitumor activity on the” for “on the”

HCC-2998 = assay: NCI-60 screen; type: cell-based; conditions: Homo sapiens, Colon Cancer
Procedure: as §1, with “All the synthesized compounds 51–76 were tested at a 10^–5 M concentration for their antitumor activity on the” for “on the”

786–0 = assay: NCI-60 screen; type: cell-based; conditions: Homo sapiens, Renal Cancer
Procedure: as §1, with “All the synthesized compounds 51–76 were tested at a 10^–5 M concentration for their antitumor activity on the” for “on the”

OVCAR-4 = assay: NCI-60 screen; type: cell-based; conditions: Homo sapiens, Ovarian Cancer
Procedure: as §1, with “All the synthesized compounds 51–76 were tested at a 10^–5 M concentration for their antitumor activity on the” for “on the”

SF-539 = assay: NCI-60 screen; type: cell-based; conditions: Homo sapiens, CNS Cancer
Procedure: as §1, with “All the synthesized compounds 51–76 were tested at a 10^–5 M concentration for their antitumor activity on the” for “on the”

UO-31 = assay: NCI-60 screen; type: cell-based; conditions: Homo sapiens, Renal Cancer
Procedure: as §1, with “All the synthesized compounds 51–76 were tested at a 10^–5 M concentration for their antitumor activity on the” for “on the”

OVCAR-8 = assay: NCI-60 screen; type: cell-based; conditions: Homo sapiens, Ovarian Cancer
Procedure: as §1, with “All the synthesized compounds 51–76 were tested at a 10^–5 M concentration for their antitumor activity on the” for “on the”

SN12C = assay: NCI-60 screen; type: cell-based; conditions: Homo sapiens, Renal Cancer
Procedure: as §1, with “All the synthesized compounds 51–76 were tested at a 10^–5 M concentration for their antitumor activity on the” for “on the”

HS 578T = assay: NCI-60 screen; type: cell-based; conditions: Homo sapiens, Breast Cancer
Procedure: as §1, with “All the synthesized compounds 51–76 were tested at a 10^–5 M concentration for their antitumor activity on the” for “on the”

HOP-92 = assay: NCI-60 screen; type: cell-based; conditions: Homo sapiens, Non-Small-Cell Lung Cancer
Procedure: as §1, with “All the synthesized compounds 51–76 were tested at a 10^–5 M concentration for their antitumor activity on the” for “on the”

BT-549 = assay: NCI-60 screen; type: cell-based; conditions: Homo sapiens, Breast Cancer
Procedure: as §1, with “All the synthesized compounds 51–76 were tested at a 10^–5 M concentration for their antitumor activity on the” for “on the”

MDA-MB-468 = assay: NCI-60 screen; type: cell-based; conditions: Homo sapiens, Breast Cancer
Procedure: as §1, with “All the synthesized compounds 51–76 were tested at a 10^–5 M concentration for their antitumor activity on the” for “on the”

RXF 393 = assay: NCI-60 screen; type: cell-based; conditions: Homo sapiens, Renal Cancer
Procedure: as §1, with “All the synthesized compounds 51–76 were tested at a 10^–5 M concentration for their antitumor activity on the” for “on the”

NCI-H23 = assay: NCI-60 screen; type: cell-based; conditions: Homo sapiens, Non-Small-Cell Lung Cancer
Procedure: as §1, with “All the synthesized compounds 51–76 were tested at a 10^–5 M concentration for their antitumor activity on the” for “on the”

SK-MEL-28 = assay: NCI-60 screen; type: cell-based; conditions: Homo sapiens, Melanoma
Procedure: as §1, with “All the synthesized compounds 51–76 were tested at a 10^–5 M concentration for their antitumor activity on the” for “on the”

U251 = assay: NCI-60 screen; type: cell-based; conditions: Homo sapiens, U-251; CNS Cancer
Procedure: as §1, with “All the synthesized compounds 51–76 were tested at a 10^–5 M concentration for their antitumor activity on the” for “on the”

tubulin colchicine site = tubulin colchicine site (Bos taurus, UniProt P81947+Q6B856); assay: Inhibition of [3H]colchicine binding to tubulin; conditions: read-out: inhibition of colchicine binding % inhibition ± SD
tubulin colchicine site, sequence (Q6B856 whole entry): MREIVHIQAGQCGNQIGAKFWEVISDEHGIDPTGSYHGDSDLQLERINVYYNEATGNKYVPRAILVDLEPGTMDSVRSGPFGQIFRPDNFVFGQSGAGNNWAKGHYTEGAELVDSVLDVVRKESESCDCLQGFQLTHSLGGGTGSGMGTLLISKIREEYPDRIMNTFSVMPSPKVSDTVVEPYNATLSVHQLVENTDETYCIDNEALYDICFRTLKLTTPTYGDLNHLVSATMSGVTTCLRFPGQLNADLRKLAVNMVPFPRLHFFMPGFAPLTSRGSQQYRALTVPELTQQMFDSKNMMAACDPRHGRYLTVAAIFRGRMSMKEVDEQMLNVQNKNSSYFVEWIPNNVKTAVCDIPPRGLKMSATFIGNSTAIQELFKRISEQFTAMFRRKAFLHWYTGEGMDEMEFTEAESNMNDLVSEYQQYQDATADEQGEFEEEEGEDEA
tubulin colchicine site, sequence (P81947 whole entry): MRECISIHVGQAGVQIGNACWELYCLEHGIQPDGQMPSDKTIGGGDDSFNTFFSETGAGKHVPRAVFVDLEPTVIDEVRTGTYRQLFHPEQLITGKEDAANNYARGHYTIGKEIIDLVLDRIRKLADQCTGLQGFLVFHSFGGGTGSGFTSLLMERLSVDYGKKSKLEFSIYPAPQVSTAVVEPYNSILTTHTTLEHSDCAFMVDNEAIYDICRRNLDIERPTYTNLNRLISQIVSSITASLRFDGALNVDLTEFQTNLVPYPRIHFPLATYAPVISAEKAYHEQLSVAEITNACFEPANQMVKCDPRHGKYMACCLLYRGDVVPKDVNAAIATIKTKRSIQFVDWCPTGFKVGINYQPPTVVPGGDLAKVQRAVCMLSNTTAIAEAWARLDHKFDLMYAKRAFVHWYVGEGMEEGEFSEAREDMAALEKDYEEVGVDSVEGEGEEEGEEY
Procedure: Reaction mixtures in the assembly assay contained 9 μM (0.9 mg/mL) tubulin in the assembly assay, and in the colchicine assay they contained 0.5 μM tubulin, 5.0 μM [^3H]colchicine, and 5.0 μM inhibitor.
Analysis of effects on tubulin polymerization was performed by turbidimetry at 350 nm in recording spectrophotometers equipped with electronic temperature controllers as described in detail elsewhere.[71] […] The binding of [^3H]colchicine to tubulin was perfomed as described in detail previously[72] except that the tubulin concentration was reduced from 0.1 mg/mL to 0.05 mg/mL and only one, instead of two, DEAE-cellulose filter was used for each reaction mixture.

A549/ATCC = assay: NCI-60 screen; type: cell-based; conditions: Homo sapiens, Non-Small-Cell Lung Cancer
Procedure: as §1, with “All the synthesized compounds 51–76 were tested at a 10^–5 M concentration for their antitumor activity on the” for “on the”

SK-MEL-2 = assay: NCI-60 screen; type: cell-based; conditions: Homo sapiens, Melanoma
Procedure: as §1, with “All the synthesized compounds 51–76 were tested at a 10^–5 M concentration for their antitumor activity on the” for “on the”

[2] = test system: human peripheral blood lymphocytes stimulated with PHA; assay: Cytotoxicity in PHA-stimulated PBLs (MTT); type: cell-based; conditions: Lymphocyte, 72 h, mean ± SEM, three experiments, read-out: GI50 PBLPHA
Procedure: (§2) PBLs were obtained from human peripheral blood (leucocyte rich plasma-buffy coats) from healthy volunteers using the Lymphoprep (Fresenius KABI Norge AS) gradient density centrifugation.
(§3) After extensive washing, cells were resuspended (1.0 × 10^6 cells/mL) in RPMI-1640 with 10% fetal bovine serum and incubated overnight. For cytotoxicity evaluations in proliferating PBL cultures, nonadherent cells were resuspended at 5 × 10^5 cells/mL in growth medium, containing 2.5 μg/mL PHA (Irvine Scientific). Different concentrations of the test compounds were added, and viability was determined 72 h later by the MTT test. For cytotoxicity evaluations in resting PBL cultures, nonadherent cells were resuspended (5 × 10^5 cells/mL) and treated for 72 h with the test compounds.

[3] = test system: human peripheral blood lymphocytes not stimulated with PHA; assay: Cytotoxicity in resting PBLs (MTT); type: cell-based; conditions: Lymphocyte, 72 h, mean ± SEM, three experiments, read-out: GI50 PBLresting
Procedure: as §2, §3

bovine brain tubulin = bovine brain tubulin (Bos taurus, UniProt P81947+Q6B856); assay: Inhibition of tubulin assembly (turbidimetry); type: biochemical; conditions: 9 μM (0.9 mg/mL) tubulin, 20 min at 30 °C; read-out: inhibition of tubulin assembly IC50 ± SD
bovine brain tubulin, sequence (Q6B856 whole entry): as the sequence (Q6B856 whole entry) above
bovine brain tubulin, sequence (P81947 whole entry): as the sequence (P81947 whole entry) above

HeLa cells = assay: Flow cytometric cell cycle distribution; type: cell-based; conditions: 24 h
Procedure: To evaluate the effects of compounds 63, 66, and 75 on cell cycle progression, we first treated HeLa cells for 24 h.The cells were then labeled with propidium iodide (PI) and analyzed by flow cytometry. As shown in Figure 5 (panel B), compound 66 induced arrest of the cell cycle in the G2/M phase.
5 ×10^5 HeLa cells were treated with different concentrations of the test compounds for 24 h. After the incubation period, the cells were collected, centrifuged, and fixed with ice-cold ethanol (70%). The cells were treated with lysis buffer containing RNase A and 0.1% Triton X-100 and stained with PI. Samples were analyzed on a Cytomic FC500 flow cytometer (Beckman Coulter). DNA histograms were analyzed using MultiCycle for Windows (Phoenix Flow Systems).

[4] = Homo sapiens, full NCI panel, five concentrations 10^–4–10^–8 M, read-out: GI50 (concentration that inhibits 50% net cell growth), range over panel

SMILES | GI50 [1, 4] | MG_MID (mean graph midpoint) ([1]; full NCI panel) | GI50 (NCI-H322M) | GI50 (MALME-3M) | GI50 (ACHN) | GI50 (OVCAR-5) | GI50 (A498) | GI50 (CCRF-CEM) | GI50 (T-47D) | GI50 (HOP-62) | GI50 (SK-MEL-5) | GI50 (NCI-H226) | GI50 (DU-145) | GI50 (K-562) | GI50 (SNB-75) | GI50 (HCC-2998) | GI50 (786–0) | GI50 (OVCAR-4) | GI50 (SF-539) | GI50 (UO-31) | also measured
CCOC(=O)c1c(Cl)c2c(n1Cc1ccccc1)-c1oncc1CCC2 [Compound 70, Ethyl 7-Chloro-9-benzyl-4,5,6,9-tetrahydropyrrolo[2′,3′:3,4]cyclohepta[1,2-d][1,2]oxazole-8-carboxylate] | 1290 to 5890 nM | 7.08 µM | > 100000 nM | 3680 nM | 5890 nM | > 100000 nM | 4380 nM | 2210 nM | 2690 nM | 4350 nM | 3530 nM | > 100000 nM | > 100000 nM | 3680 nM | – | – | – | – | – | – | –
CCOC(=O)c1cc2c(n1Cc1ccccc1OC)-c1oncc1CCC2 [Compound 62, Ethyl 9-(2-Methoxybenzyl)-4,5,6,9-tetrahydropyrrolo[2′,3′:3,4]cyclohepta[1,2-d][1,2]oxazole-8-carboxylate] | 300 to 46200 nM | 4.47 µM | 5230 nM | 3080 nM | 16600 nM | > 100000 nM | 3460 nM | 2870 nM | 2460 nM | 1890 nM | 2610 nM | > 100000 nM | 5270 nM | 1590 nM | 1970 nM | > 100000 nM | > 100000 nM | 9350 nM | 2480 nM | 6530 nM | GI50 (OVCAR-8): 3850 nM; GI50 (SN12C): > 100000 nM; GI50 (HS 578T): 3380 nM; GI50 (HOP-92): 300 nM; GI50 (BT-549): 7730 nM; GI50 (MDA-MB-468): 2950 nM; GI50 (RXF 393): 2080 nM; GI50 (NCI-H23): 8520 nM; GI50 (SK-MEL-28): > 100000 nM; GI50 (U251): 3780 nM
CCOC(=O)c1cc2c(n1Cc1cc(OC)cc(OC)c1)-c1oncc1CCC2 [Compound 66, Ethyl 9-(3,5-Dimethoxybenzyl)-4,5,6,9-tetrahydropyrrolo[2′,3′:3,4]cyclohepta[1,2-d][1,2]oxazole-8-carboxylate] | – | 0.08 µM | – | – | 60 nM | 180 nM | 20 nM | 50 nM | – | – | 40 nM | 7980 nM | 40 nM | 40 nM | 30 nM | 230 nM | 50 nM | 13400 nM | 30 nM | 50 nM | inhibition at 5 µM (tubulin colchicine site): 62 ± 2%; GI50 ([1]; Homo sapiens, prostate subpanel, read-out: GI50): 40 nM; mean values of subpanel ([1]; colon and CNS cancers): 0.06 µM; GI50 ([1]; full NCI panel, five concentrations 10^–4–10^–8 M, read-out: GI50 (concentration that inhibits 50% net cell growth), range over panel): 10 to 13400 nM; calculated MG_MID value for each subpanel ([1]; melanoma, prostate and renal subpanels): 0.04 µM; GI50 (A549/ATCC): 60 nM; GI50 (OVCAR-8): 80 nM; GI50 (SK-MEL-2): 40 nM; GI50 (SN12C): 70 nM; GI50 (HS 578T): 40 nM; GI50 (BT-549): 1720 nM; GI50 (MDA-MB-468): 30 nM; GI50 (RXF 393): 20 nM; GI50 (SK-MEL-28): 90 nM; GI50 [2]: > 100000 nM; GI50 [3]: > 100000 nM; IC50 (bovine brain tubulin): 2600 ± 30 nM; concentration at which G2/M arrest first occurred (HeLa cells): 0.125 µM; cells arrested in G2/M (HeLa cells; 0.5 μM): over 80%
